Laboratory results reported in patent publication US20090131431A1, “Pyrazolo[3,4-b]pyridine compounds, and their use as a PDE4 inhibitors” (priority 2005, published 2009).

molecular target: T1, PDE4B (human recombinant) (Homo sapiens, UniProt Q07343); experiment: Inhibition of PDE4B activity: SPA and/or Fluorescence Polarisation (FP) assay; assay type: biochemical; details: one reading (n=1) or average of 2 or more readings, read-out: PDE4B pIC50 (±about 0.5) (converted)
T1 construct: made in house
Procedure, shortened: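 Human recombinant PDE4B activity measured by SPA with [3H]cAMP at about 10 nM, 1 h at ambient temperature, enzyme set for ≤20% substrate hydrolysis, or by IMAP FP with Fl-cAMP at about 40 nM, 40 min at ambient temperature under linear conditions. Inhibition curves fitted; values reported as pIC50.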

T1 sequence (Q07343 1-564 isoform Q07343-2): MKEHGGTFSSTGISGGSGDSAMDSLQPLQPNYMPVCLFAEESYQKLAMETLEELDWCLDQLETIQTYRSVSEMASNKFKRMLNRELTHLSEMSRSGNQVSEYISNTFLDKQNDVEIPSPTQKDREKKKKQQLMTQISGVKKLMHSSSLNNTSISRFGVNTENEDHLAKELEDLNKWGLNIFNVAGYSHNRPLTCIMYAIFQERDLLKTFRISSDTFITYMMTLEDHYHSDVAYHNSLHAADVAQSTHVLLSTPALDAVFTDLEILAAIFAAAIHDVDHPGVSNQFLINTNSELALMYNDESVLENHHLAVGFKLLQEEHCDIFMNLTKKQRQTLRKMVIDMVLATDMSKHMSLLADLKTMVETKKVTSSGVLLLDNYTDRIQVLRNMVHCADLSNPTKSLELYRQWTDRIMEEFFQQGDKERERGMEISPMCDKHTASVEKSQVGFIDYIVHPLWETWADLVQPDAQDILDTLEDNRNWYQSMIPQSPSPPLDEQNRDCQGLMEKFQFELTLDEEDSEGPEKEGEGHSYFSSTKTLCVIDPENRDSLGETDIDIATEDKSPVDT

IC50	SMILES
0.01 to 0.1 nM	CCc1nc2c(cnn2CC)c(NC2CCN(C(N)=O)CC2)c1CNC(=O)c1ccco1 [Example 240, 4-[(1,6-diethyl-5-{[(2-furanylcarbonyl)amino]methyl}-1H-pyrazolo[3,4-b]pyridin-4-yl)amino]-1-piperidinecarboxamide]
0.01 to 0.1 nM	CCc1nc2c(cnn2CC)c(NC2CCN(C(N)=O)CC2)c1CNC(=O)c1ccc(NC(C)=O)cc1O [Example 241, 4-({5-[({[4-(acetylamino)-2-hydroxyphenyl]carbonyl}amino)methyl]-1,6-diethyl-1H-pyrazolo[3,4-b]pyridin-4-yl}amino)-1-piperidinecarboxamide]
0.01 to 0.1 nM	CCc1nc2c(cnn2CC)c(NC2CCN(C(N)=O)CC2)c1CNC(=O)c1ccc(NC(C)=O)cc1 [Example 242, 4-({5-[({[4-(acetylamino)phenyl]carbonyl}amino)methyl]-1,6-diethyl-1H-pyrazolo[3,4-b]pyridin-4-yl}amino)-1-piperidinecarboxamide]
0.01 to 0.1 nM	CCc1nc2c(cnn2CC)c(NC2CCN(C(N)=O)CC2)c1CNC(=O)c1ccc(C(C)(C)C)cc1 [Example 243, 4-({5-[({[4-(1-dimethylethyl)phenyl]carbonyl}amino)methyl]-1,6-diethyl-1H-pyrazolo[3,4-b]pyridin-4-yl}amino)-1-piperidinecarboxamide]
0.01 to 0.1 nM	CCc1nc2c(cnn2CC)c(NC2CCN(C(N)=O)CC2)c1CNC(=O)c1cccc(NC(C)=O)c1 [Example 244, 4-({5-[({[3-(acetylamino)phenyl]carbonyl}amino)methyl]-1,6-diethyl-1H-pyrazolo[3,4-b]pyridin-4-yl}amino)-1-piperidinecarboxamide]
0.01 to 0.1 nM	CCc1nc2c(cnn2CC)c(NC2CCN(C(N)=O)CC2)c1CNC(=O)c1ccc(C)cc1O [Example 245, 4-{[1,6-diethyl-5-({[(2-hydroxy-4-methylphenyl)carbonyl]amino}methyl)-1H-pyrazolo[3,4-b]pyridin-4-yl]amino}-1-piperidinecarboxamide]
0.01 to 0.1 nM	CCc1nc2c(cnn2CC)c(NC2CCN(C(N)=O)CC2)c1CNC(=O)c1ccccc1F [Example 246, 4-{[1,6-diethyl-5-({[(2-fluorophenyl)carbonyl]amino}methyl)-1H-pyrazolo[3,4-b]pyridin-4-yl]amino}-1-piperidinecarboxamide]
0.01 to 0.1 nM	CCc1nc2c(cnn2CC)c(NC2CCN(C(N)=O)CC2)c1CNC(=O)c1cccc(N2CCCC2=O)c1 [Example 247, 4-({1,6-diethyl-5-[({[3-(2-oxo-1-pyrrolidinyl)phenyl]carbonyl}amino)methyl]-1H-pyrazolo[3,4-b]pyridin-4-yl}amino)-1-piperidinecarboxamide]
0.01 to 0.1 nM	CCc1nc2c(cnn2CC)c(NC2CCN(C(N)=O)CC2)c1CNC(=O)c1ccc2c(=O)[nH][nH]c2c1 [Example 248, N-[(4-{[1-(aminocarbonyl)-4-piperidinyl]amino}-1,6-diethyl-1H-pyrazolo[3,4-b]pyridin-5-yl)methyl]-3-oxo-2,3-dihydro-1H-indazole-6-carboxamide]
0.126 to 1 nM	CCc1nc2c(cnn2CC)c(NC2CCOCC2)c1CNC(=O)c1ccc(S(C)(=O)=O)cc1 [Example 249, N-{[1,6-diethyl-4-(tetrahydro-2H-pyran-4-ylamino)-1H-pyrazolo[3,4-b]pyridin-5-yl]methyl}-4-(methylsulfonyl)benzamide]
0.01 to 0.1 nM	CCc1nc2c(cnn2CC)c(NC2CCOCC2)c1CNC(=O)c1ccccc1O [Example 250, N-{[1,6-diethyl-4-(tetrahydro-2H-pyran-4-ylamino)-1H-pyrazolo[3,4-b]pyridin-5-yl]methyl}-2-hydroxybenzamide]
0.01 to 0.1 nM	CCc1nc2c(cnn2CC)c(NC2CCOCC2)c1CNC(=O)c1ccc(NC(C)=O)cc1O [Example 251, 4-(acetylamino)-N-{[1,6-diethyl-4-(tetrahydro-2H-pyran-4-ylamino)-1H-pyrazolo[3,4-b]pyridin-5-yl]methyl}-2-hydroxybenzamide]
0.01 to 0.1 nM	CCc1nc2c(cnn2CC)c(NC2CCOCC2)c1CNC(=O)c1ccc(C(C)(C)C)cc1 [Example 252, N-{[1,6-diethyl-4-(tetrahydro-2H-pyran-4-ylamino)-1H-pyrazolo[3,4-b]pyridin-5-yl]methyl}-4-(1,1-dimethylethyl)benzamide]
0.01 to 0.1 nM	CCc1nc2c(cnn2CC)c(NC2CCOCC2)c1CNC(=O)c1ccc(C(N)=O)cc1 [Example 253, N-{[1,6-diethyl-4-(tetrahydro-2H-pyran-4-ylamino)-1H-pyrazolo[3,4-b]pyridin-5-yl]methyl}-1,4-benzenedicarboxamide]
0.01 to 0.1 nM	CCc1nc2c(cnn2CC)c(NC2CCOCC2)c1CNC(=O)c1ccc(C)cc1O [Example 254, N-{[1,6-diethyl-4-(tetrahydro-2H-pyran-4-ylamino)-1H-pyrazolo[3,4-b]pyridin-5-yl]methyl}-2-hydroxy-4-methylbenzamide]
0.01 to 0.1 nM	CCc1nc2c(cnn2CC)c(NC2CCOCC2)c1CNC(=O)c1ccc(C(=O)NC)cc1 [Example 255, N-{[1,6-diethyl-4-(tetrahydro-2H-pyran-4-ylamino)-1H-pyrazolo[3,4-b]pyridin-5-yl]methyl}-N′-methyl-1,4-benzenedicarboxamide]

Continued, molecule first:

SMILES	IC50
CCn1ncc2c(NC3CCOCC3)c(CNC(=O)c3ccco3)c(C)nc21 [Example 218, N-{[1-ethyl-6-methyl-4-(tetrahydro-2H-pyran-4-ylamino)-1H-pyrazolo[3,4-b]pyridin-5-yl]methyl}-2-furancarboxamide]	0.126 to 1 nM
CCOc1ccccc1C(=O)NCc1c(C)nc2c(cnn2CC)c1NC1CCOCC1 [Example 219, N-{[1-ethyl-6-methyl-4-(tetrahydro-2H-pyran-4-ylamino)-1H-pyrazolo[3,4-b]pyridin-5-yl]methyl}-2-(ethyloxy)benzamide]	0.126 to 1 nM
CCn1ncc2c(NC3CCOCC3)c(CNC(=O)c3cccc4c3OCC4)c(C)nc21 [Example 220, N-{[1-ethyl-6-methyl-4-(tetrahydro-2H-pyran-4-ylamino)-1H-pyrazolo[3,4-b]pyridin-5-yl]methyl}-2,3-dihydro-1-benzofuran-7-carboxamide]	0.01 to 0.1 nM
CCn1ncc2c(NC3CCOCC3)c(CNC(=O)c3cc(C)on3)c(C)nc21 [Example 225, N-{[1-ethyl-6-methyl-4-(tetrahydro-2H-pyran-4-ylamino)-1H-pyrazolo[3,4-b]pyridin-5-yl]methyl}-5-methyl-3-isoxazolecarboxamide]	0.126 to 1 nM
CCn1ncc2c(NC3CCOCC3)c(CNC(=O)c3cncs3)c(C)nc21 [Example 226, N-{[1-ethyl-6-methyl-4-(tetrahydro-2H-pyran-4-ylamino)-1H-pyrazolo[3,4-b]pyridin-5-yl]methyl}-1,3-thiazole-5-carboxamide]	0.126 to 1 nM
CCn1ncc2c(NC3CCOCC3)c(CNC(=O)c3ccsc3)c(C)nc21 [Example 227, N-{[1-ethyl-6-methyl-4-(tetrahydro-2H-pyran-4-ylamino)-1H-pyrazolo[3,4-b]pyridin-5-yl]methyl}-3-thiophenecarboxamide]	0.126 to 1 nM
CCn1ncc2c(NC3CCOCC3)c(CNC(=O)c3cnc(C)cn3)c(C)nc21 [Example 228, N-{[1-ethyl-6-methyl-4-(tetrahydro-2H-pyran-4-ylamino)-1H-pyrazolo[3,4-b]pyridin-5-yl]methyl}-5-methyl-2-pyrazinecarboxamide]	0.126 to 1 nM
CCn1ncc2c(NC3CCOCC3)c(CNC(=O)c3ccn(C)n3)c(C)nc21 [Example 229, N-{[1-ethyl-6-methyl-4-(tetrahydro-2H-pyran-4-ylamino)-1H-pyrazolo[3,4-b]pyridin-5-yl]methyl}-1-methyl-1H-pyrazole-3-carboxamide]	0.126 to 1 nM
CCc1nc2c(cnn2CC)c(NC2CCOCC2)c1CNC(=O)c1ccncc1F [Example 231, N-{[1,6-diethyl-4-(tetrahydro-2H-pyran-4-ylamino)-1H-pyrazolo[3,4-b]pyridin-5-yl]methyl}-3-fluoro-4-pyridinecarboxamide]	0.126 to 1 nM
CCc1nc2c(cnn2CC)c(NC2CCOCC2)c1CNC(=O)c1ccccc1F [Example 232, N-{[1,6-diethyl-4-(tetrahydro-2H-pyran-4-ylamino)-1H-pyrazolo[3,4-b]pyridin-5-yl]methyl}-2-fluorobenzamide]	0.01 to 0.1 nM
CCc1nc2c(cnn2CC)c(NC2CCOCC2)c1CNC(=O)c1cc(C)on1 [Example 233, N-{[1,6-diethyl-4-(tetrahydro-2H-pyran-4-ylamino)-1H-pyrazolo[3,4-b]pyridin-5-yl]methyl}-5-methyl-3-isoxazolecarboxamide]	0.01 to 0.1 nM
CCc1nc2c(cnn2CC)c(NC2CCOCC2)c1CNC(=O)c1cncs1 [Example 234, N-{[1,6-diethyl-4-(tetrahydro-2H-pyran-4-ylamino)-1H-pyrazolo[3,4-b]pyridin-5-yl]methyl}-1,3-thiazole-5-carboxamide]	0.126 to 1 nM
CCc1nc2c(cnn2CC)c(NC2CCOCC2)c1CNC(=O)c1ccsc1 [Example 235, N-{[1,6-diethyl-4-(tetrahydro-2H-pyran-4-ylamino)-1H-pyrazolo[3,4-b]pyridin-5-yl]methyl}-3-thiophenecarboxamide]	0.01 to 0.1 nM
CCc1nc2c(cnn2CC)c(NC2CCOCC2)c1CNC(=O)c1cnc(C)cn1 [Example 236, N-{[1,6-diethyl-4-(tetrahydro-2H-pyran-4-ylamino)-1H-pyrazolo[3,4-b]pyridin-5-yl]methyl}-5-methyl-2-pyrazinecarboxamide]	0.01 to 0.1 nM
CCc1nc2c(cnn2CC)c(NC2CCOCC2)c1CNC(=O)c1ccn(C)n1 [Example 238, N-{[1,6-diethyl-4-(tetrahydro-2H-pyran-4-ylamino)-1H-pyrazolo[3,4-b]pyridin-5-yl]methyl}-1-methyl-1H-pyrazole-3-carboxamide]	0.126 to 1 nM
CCc1nc2c(cnn2CC)c(NC2CCOCC2)c1CNC(=O)c1cnco1 [Example 239, N-{[1,6-diethyl-4-(tetrahydro-2H-pyran-4-ylamino)-1H-pyrazolo[3,4-b]pyridin-5-yl]methyl}-1,3-oxazole-5-carboxamide]	0.126 to 1 nM
